Results reported in PMC3173180 (The Journal of Biological Chemistry, 2011).

T1: IbpA-Fic1 (Histophilus somni, UniProt Q06277)
T1 sequence (Q06277 2994-3358): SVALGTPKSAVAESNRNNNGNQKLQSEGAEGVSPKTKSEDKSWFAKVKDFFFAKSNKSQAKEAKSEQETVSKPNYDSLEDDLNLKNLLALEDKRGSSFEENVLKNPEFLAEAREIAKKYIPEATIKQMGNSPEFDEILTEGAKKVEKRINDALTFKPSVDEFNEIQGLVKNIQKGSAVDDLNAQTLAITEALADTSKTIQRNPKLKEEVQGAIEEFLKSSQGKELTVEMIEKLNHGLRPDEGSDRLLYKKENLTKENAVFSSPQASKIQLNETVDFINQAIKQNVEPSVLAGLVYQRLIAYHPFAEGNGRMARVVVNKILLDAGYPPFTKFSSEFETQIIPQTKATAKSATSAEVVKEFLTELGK

T2: PfhB2-Fic1 (Pasteurella multocida, UniProt Q9CPH9)
T2 sequence (Q9CPH9 2892-3191): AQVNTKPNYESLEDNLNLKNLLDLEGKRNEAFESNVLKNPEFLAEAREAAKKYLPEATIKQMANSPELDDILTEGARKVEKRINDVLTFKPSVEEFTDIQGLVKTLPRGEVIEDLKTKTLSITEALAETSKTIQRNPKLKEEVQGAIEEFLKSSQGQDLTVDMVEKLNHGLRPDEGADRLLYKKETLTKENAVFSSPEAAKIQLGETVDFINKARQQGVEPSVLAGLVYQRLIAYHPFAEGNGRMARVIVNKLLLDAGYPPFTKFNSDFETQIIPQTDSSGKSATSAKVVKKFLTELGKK

T3: PfhB2-Fic2 (Pasteurella multocida, UniProt Q9CPH9)
T3 sequence (Q9CPH9 3309-3609): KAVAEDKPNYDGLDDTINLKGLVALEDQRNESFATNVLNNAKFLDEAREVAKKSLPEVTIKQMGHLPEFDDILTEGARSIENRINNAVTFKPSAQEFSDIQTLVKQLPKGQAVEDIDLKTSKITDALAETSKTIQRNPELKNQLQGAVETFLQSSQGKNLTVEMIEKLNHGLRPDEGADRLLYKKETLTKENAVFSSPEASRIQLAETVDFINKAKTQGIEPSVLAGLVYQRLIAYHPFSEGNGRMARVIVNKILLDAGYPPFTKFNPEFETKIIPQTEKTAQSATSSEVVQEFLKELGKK

T4: HYPE-Fic (Homo sapiens, UniProt Q9BVA6)
T4 sequence (Q9BVA6 181-458): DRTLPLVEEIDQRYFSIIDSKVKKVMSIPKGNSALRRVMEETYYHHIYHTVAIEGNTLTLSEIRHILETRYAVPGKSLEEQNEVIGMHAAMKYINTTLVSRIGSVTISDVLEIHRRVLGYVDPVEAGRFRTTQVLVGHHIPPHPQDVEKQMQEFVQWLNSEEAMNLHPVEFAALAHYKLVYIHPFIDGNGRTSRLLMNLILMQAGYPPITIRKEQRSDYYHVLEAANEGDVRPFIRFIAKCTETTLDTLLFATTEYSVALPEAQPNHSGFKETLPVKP


How the values were obtained:
IbpA-Fic1 = biological target: T1, IbpA-Fic1; experiment: SDS-PAGE autoradiography of modified Cdc42; type: biochemical
PfhB2-Fic1 = biological target: T2, PfhB2-Fic1; experiment: SDS-PAGE autoradiography of modified Cdc42; type: biochemical
PfhB2-Fic2 = biological target: T3, PfhB2-Fic2; experiment: SDS-PAGE autoradiography of modified Cdc42; type: biochemical
HYPE-Fic = biological target: T4, HYPE-Fic; experiment: SDS-PAGE autoradiography of modified Cdc42; type: biochemical
purified protein = substrate: Nc1ncnc2c1ncn2[C@@H]1O[C@H](COP(=O)(O)OP(=O)(O)OP(=O)(O)O)[C@@H](O)[C@H]1O; experiment: purified protein; conditions: pH 7.4; 25.0 °C

Row | Molecule | SDS-PAGE autoradiography of modified Cdc42 (IbpA-Fic1) | SDS-PAGE autoradiography of modified Cdc42 (PfhB2-Fic1) | SDS-PAGE autoradiography of modified Cdc42 (PfhB2-Fic2) | SDS-PAGE autoradiography of modified Cdc42 (HYPE-Fic) | Km (purified protein) | kcat (purified protein)
1 | Nc1ncnc2c1ncn2[C@@H]1O[C@H](COP(=O)(O)OP(=O)(O)OP(=O)(O)O)[C@@H](O)[C@H]1O [ATP] | ATP was the preferred nucleotide source for all the Fic domains tested | ATP was the preferred nucleotide source for all the Fic domains tested | ATP was the preferred nucleotide source for all the Fic domains tested | HYPE-Fic efficiently uses ATP, and CTP to a lesser degree, to modify Cdc42 | – | –
2 | IbpA-Fic2 (untagged) (Histophilus somni 2336) (protein) DETANKVNYQDLEDNLNLKGLISLEDDRNANFESNVLKNEKFLDEAREISKKSIPEATVKQMSHLPEFDDILTEGAKKVESRINKAITFRPSVEEFSEIQDLVKTLPKTKVIEDLSTKTNEITEALAATSKTIQRTPELKEQLKTAIEDFLQNSQGKPLTVQMIENLNHGLRPDEGEGRLLYKKENLTKENAVFSSPEAAKIQLAETVDFINRAKNEGIEPSVVGALVYQRLIAYHPFAEGNGRMARVIVNKILLDAGYPAFTKFSDEFEPQIIPQTKASTKSATSSEVVVEFLKELAKKGSKEDNEQNLEKTDRT | – | – | – | – | 0.73 ± 0.04 mM | 111 ± 2 s⁻¹
